Assay results published in patent publication US20040005649A1, “Anti-stilbene antibodies” (priority 2003, published 2004).
One block for each compound: values may come before it.

Tests used:
[1] = 77° K in hydrophobic solvents and 193° K in glycerol; cited from earlier work
[2] = Steady-state UV absorption, fluorescence excitation and emission spectra, quantum yield; assay type: physicochemical
Description: (A) UV absorption. (B) Fluorescence excitation. Note: The 19G2-2 complex and free 2 each required a separate y-axis scale for side-by-side comparison of peak shapes. (C) Fluorescence emission. See note for (B). In all cases, see Table 2 for experimental conditions. Steady-state excitation and emission spectra were recorded using an SLM 8100 spectrofluorimeter (Spectronics Instruments) with a bandpass of 4 nm for excitation and emission.

[3] = Picosecond time-resolved emission, time-correlated single photon counting; assay type: physicochemical
Description: Measurements were obtained with picosecond excitation at 318 nm. Decays were measured at 380 nm (free 2, 16H10 and 25E5 complexes) or 410 nm (19G2 complex) by time-correlated single photon counting. Decays were recorded in 4096 channels with a time increment of 18 ps/channel and were normalized relative to the number of counts recorded in the peak channel. See Table 3 for experimental conditions.
Normalized time-resolved emission profiles of the 20F2-2 complex were recorded at 370 nm (purple) and 480 nm (blue). The solid lines are multiexponential fits to each decay. […] Decays were recorded in 4096 channels with a time increment of 4.9 ps/channel and were normalized relative to the number of counts recorded in the peak channel. See Table 3 for experimental conditions.
Dynamic spectroscopy. Picosecond time-resolved emission spectroscopy was used to further probe the dynamics of blue-fluorescent antibodies. Time-resolved emission decay profiles of free 2 and bound to EP2 mAbs were measured at room temperature by time-correlated single-photon counting (Table 3, FIG. 16).

[4] = tested on: mAb 19G2; assay: Binding of stilbene-tethered C-nucleosides to blue-fluorescent mAb 19G2 (fluorescence, crystal soak); design: species or system mice; settings: for emission of mAb 19G2 crystal after soaking: crystal soaked with ligand, UV lamp
Description: Each C-nucleoside was tested for the ability to bind to the blue-fluorescent monoclonal antibody (mAb) 19G2. […] Subsequently, we acquired X-ray crystallographic data on both complexes primarily to obtain information regarding positioning of the nucleobase moiety with regard to the protein framework. The structures of the 19G2-9 and 19G2-18 complexes were determined to a resolution of 2.45 Å and 2.20 Å, respectively (Table 4). In both cases, the antibody structures differ by an RMSD of 0.61 Å and 0.50 Å from that of the previously determined 19G2-12 complex. The stilbene portion of both 9 and 18 is clear in 2σ density and could be readily modeled into the density as the trans-isomer. For both complexes, binding site amino acid residues within 5 Å of the stilbene are observed to be in the same conformation as in 19G2-12.
X-ray crystallography. Crystals of mAb 19G2 were soaked overnight with a 0.25 mM solution of either 9 or 18 (DMF stock solutions) in mother liquor from the crystal growth (12% polyethylene glycol, 0.1 M sodium acetate pH 4.75, 0.3 M magnesium chloride) containing 5% DMF. Formation of the complex in the crystal was assayed by the appearance of blue fluorescence from soaked crystals when illuminated by a hand-held UV lamp at 312 nm (Spectronics Corp.; Westbury, N.Y.). The crystals were soaked in a cryobuffer consisting of 20% glycerol, 0.25 mM 9 or 18, mother liquor, and 5% DMF and flash frozen in liquid nitrogen. X-ray diffraction was collected in-house with an FRD X-ray generator and a RAXISIVF^++ detector. Data was processed and scaled using HKL software package. The previously determined structure of the antibody (PDB ID CODE 1FL3) was used as a starting model for refinement. Multiple rounds of rigid body refinement, B-factor refinement, Powell minimization, simulated annealing in CNS and manual rebuilding in O were performed.

[5] = 20 μM mAb, 10 μM of 2 (or free stilbene), PBS pH 7.4, 5% DMF, 20° C
[6] = 20 μM mAb, 10 μM of 2 (or free stilbene), PBS, 5% DMF, 20° C

Structure (SMILES): C(=C\c1ccccc1)/c1ccccc1 [compound 1, trans-stilbene]
φf [1]: 0.75

λem [2, 5]: 388 nm
λex [2, 5]: 325 nm
εmax [2, 6]: 33200 M⁻¹ cm⁻¹
φf lower than blue-fluorescent antibody complexes ([2]; free 2 in fluid solution): 30-40 fold
φf (fluorescence quantum yield) ([2]; reference quinine bisulfate, 20 μM mAb, 10 μM of 2, PBS, 5% DMF, 20° C, accurate to ±10%): 0.02
UV absorption bands ([2]; values in parentheses are shoulders/inflections, 20 μM mAb, 10 μM of 2, PBS, 5% DMF, 20° C): 320 nm
fluorescence decay components, τf ([3]; 20 μM mAb, 10 μM of 2 (or free 2), PBS, 5% DMF, 20° C): 0.071 ns
τr (radiative lifetime) ([3]; calculated from τf and φf): 3.6 ns
fluorescence lifetime ([3]; free in aqueous buffer, room temperature): ~70 ps
quantum yield (φf) of complex with mAb 19G2 [4]: ~0.80
Structure (SMILES): O=C(O)CCCC(=O)Nc1ccc(/C=C/c2ccccc2)cc1 [compound 2, 5-oxo-5-[[4-[(1E)-2-phenylethenyl]phenyl]amino]-pentanoic acid]
kr (radiative rate constant) ([3]; calculated as the inverse of τr): 0.28 ns^−1
knr (nonradiative rate constant) ([3]; calculated knr = [kr(1-φf)/φf]): 14 ns^−1

λem [2, 5]: 442 nm
εmax [2, 6]: 30000 M⁻¹ cm⁻¹
quantum yield (φf) of complex with mAb 19G2 [4]: comparable
emission of mAb 19G2 crystal after soaking [4]: blue emission
Structure (SMILES): O=C(CCCC(=O)Nc1ccc(/C=C/c2ccccc2)cc1)NCCc1ccc(C2C[C@H](O)[C@@H](CO)O2)cc1 (stereo partly drawn) [compound 9, N-[2-[4-[2-deoxy-D-erythro-pentofuranosyl]phenyl]ethyl]-N′-[4-[(1E)-2-phenylethenyl]phenyl]-pentanediamide, reference compound]

quantum yield (φf) of complex with mAb 19G2 [4]: comparable
emission of mAb 19G2 crystal after soaking [4]: blue emission
Structure (SMILES): OCC1OC(c2ccc(COCCOCCOCc3ccc(C=Cc4ccccc4)cc3)cc2)CC1O [compound 18, 1,4-anhydro-2-deoxy-1-C-[4-[[2-[2-[[4-[(1E)-2-phenylethenyl]phenyl]methoxy]ethoxy]ethoxy]methyl]]phenyl]-D-erythro-pentitol]
